Assays:
N2a-SwedAPP cells [1] = assay: Immunofluorescence of p-APP in endosomal compartments (Rab5); format: cell-based, mouse; conditions: 20 μM BBR, 3 h
Procedure: N2a-SweAPP cells are mouse neuroblastoma N2a cells stably transfected with human Swedish mutant APP695, and were gifts from Dr. Gopal Thinakaran (University of Chicago, Chicago Ill.). Cells were maintained in Dulbecco's modified Eagle's medium (DMEM) (Invitrogen, Carlsbad, Calif.) supplemented with 10% fetal bovine serum, penicillin and streptomycin and 200 μg/mL G418 (Invitrogen). Cells were cultured either in multiwell dishes or on 60 mm tissue culture plates in DMEM 10% with FBS Cell cultures were incubated at 37° C. in a humid 5% CO2/ 95% air environment. After cells were grown close to confluence, they were treated with/without different concentrations of BBR in DMEM (1% FBS) for 24 h. […]
For higher resolution microscopy, images were acquired using an Olympus IX70 Delta Vision microscopy system (Applied Precision, Issaquah, Wash.) with a 100×1.5 numerical aperture oil immersion lens. […] Subsequently serial Z-stacks of fluorescence images at 0.2-μm interval were acquired and deconvolved via a controlled iterative algorithm to generate high-resolution images of cells using […] (Applied Precision).

N2a-SwedAPP cells [2] = assay: Western blot of N2a-SwedAPP cell lysates (p-Akt, pGSK3, CTFs, p-APP, PHF-1); format: cell-based, mouse
Procedure: N2a-SweAPP cells are mouse neuroblastoma N2a cells stably transfected with human Swedish mutant APP695, and were gifts from Dr. Gopal Thinakaran (University of Chicago, Chicago Ill.). Cells were maintained in Dulbecco's modified Eagle's medium (DMEM) (Invitrogen, Carlsbad, Calif.) supplemented with 10% fetal bovine serum, penicillin and streptomycin and 200 μg/mL G418 (Invitrogen). Cells were cultured either in multiwell dishes or on 60 mm tissue culture plates in DMEM 10% with FBS Cell cultures were incubated at 37° C. in a humid 5% CO2/ 95% air environment. After cells were grown close to confluence, they were treated with/without different concentrations of BBR in DMEM (1% FBS) for 24 h. […] For the concentration-dependent treatment, cells were treated with serial dilutions of BBR ranging from 0-20 μM for 2 or 12 h prior to lysis with ice-cold RIPA buffer (20 mM Tris, pH 7.4, 150 mM NaCl, 1% triton-X, 0.5% sodium deoxycholate, EDTA) containing protease inhibitor cocktails (EMD chemicals, Philadelphia, Pa.) to find the optimal range of BBR. For the time-dependent application, cells were treated with a 20 μM concentration of BBR and incubated at time points ranging from 0-180 min prior to lysis. For immunofluorescent staining, N2a-SwedAPP cells were seeded on glass cover slips at a density of 0.5×10^5 viable cells per well in a 24-well plate. Cells on cover slips were treated with BBR (20 μM) for 3 h with or without pretreatment of LY294002 (Cell signaling Technology, Danvers, Mass.), a specific inhibitor of Akt upstream kinase phosphatidylinositol 3-kinase (PI3K) (Vlahos et al., 1994) in serum-free DMEM for 1 h, whereas control cells were incubated with vehicle (DMSO) alone in DMEM.
The brain SDS fraction as described above was used to detect the full-length APP (Fl-APP), APP C-terminal fragments (CTFs: CTF-β and CTF-α), p-APP, p-CTFs, BACE-1, ADAM-10, neprilysin, insulin-degrading enzyme (IDE), GSK3α/β, p-cyclin-dependent kinase 5 (p-CDKS), p-stress-activated protein kinase/Jun-amino-terminal kinase (p-JNK), phospho-tau epitopes and β-actin in Western blot analysis. For cell homogenates preparation, cells were washed with phosphate-buffered saline (PBS) and solubilized in ice-cold RIPA buffer. Equal amounts of protein (30 μg) were subjected to 10 and 15% SDS polyacrylamide gels, transferred onto PVDF membranes (GE Healthcare, Piscataway, N.J.) at 300 mA for 2 h, and then blocked with 5% fat-free milk in Tris-buffered saline and 0.1% Tween-20 for 2 h at room temperature. The membrane was then incubated with primary antibodies overnight at 4C. The antibodies used in Western blots were β-actin (mouse, 1:5000; Santa Cruz, Calif.), p-APP (rabbit, 1:1000; Cell signaling Technology), BACE-1 (rabbit, 1:1000; Abcam, Cambridge, Mass.), ADAM-10 (rabbit, 1:2000; EMD chemicals), insulin-degrading enzyme (IDE) (rabbit, 1:1000, Abcam), neprilysin (rabbit, 1:1000 Millipore, Temecula, Calif.), Akt (rabbit, 1:1000; Cell Signaling Technology), p-Akt (rabbit, 1:1000; Cell signaling), glycogen synthase kinase 3α/β(GSK-3α/β)[Ser21/9] (rabbit, 1:1000; Cell signaling Technology), pGSK-3α/βSer21/9] (rabbit, 1:1000; Cell signaling Technology), Cdk5[Y15] (rabbit, 1:1000; Abcam), JNK (Thr183/Tyr185) (rabbit, 1:1000, Cell signaling Technology), the C-terminal anti-APP antibody CT15 for full-length APP and CTFβ and CTFα (rabbit, 1:2000, and three mouse monoclonal antibodies against phosphorylated tau: AT8 (recognizes phosphorylated tau at Ser-202 and Thr-205, 1:1000, Pierce, Rockford, Ill.), AT180 (recognizes phosphorylated tau at Thr-231 and Ser-235, 1:1000, Pierce) and PHF-1 (recognizes -phosphorylated tau at […] and Ser 404, 1:2000, and one mouse monoclonal against dephosphorylaed tau: Tau-1 (recognizes the tau when serines 195, 198, 199, and 202 are dephosphorylated, 1:2000,). Mouse monoclonal Tau-5 used to recognize total tau (mouse 1:2000). Blots were washed in and incubated with corresponding horseradish peroxidase-conjugated secondary antibody. […]

Question: Which “pAPP staining in the endosomal compartments” value (N2a-SwedAPP cells [1]) does the source give for `COc1ccc2cc3[n+](cc2c1OC)CCc1cc2c(cc1-3)OCO2` [BBR, 5,6-dihydro-9,10-dimethoxybenzo[g]-1,3-benzodioxolo[5,6-a]quinolizinium] here?
Answer: markedly reduced

Question: And the “reduction in the level of CTFs” value (N2a-SwedAPP cells [2]; 5 μM BBR, 12 hours)?
Answer: 24%

Question: What about the “decrease of p-APP (Thr668) level” value (N2a-SwedAPP cells [2]; 10 μM BBR, 12 hours) of the same compound?
Answer: 50%

Question: And the “level of tau bound to PHF-1 decreased to % compared to control” value (N2a-SwedAPP cells [2]; 10 μM BBR, 12 hours)?
Answer: 30%

Question: And the “amount of phosphorylated GSK3, time course” value (N2a-SwedAPP cells [2]; 20 μM BBR, 0-180 min, remains higher than control beyond 3 h)?
Answer: increases during the first 30 min

Question: What about the “decrease of p-APP (Thr668) level” value (N2a-SwedAPP cells [2]; 20 μM BBR, 12 hours) of the same compound?
Answer: 75%

Question: What about the “level of tau bound to PHF-1 decreased to % compared to control” value (N2a-SwedAPP cells [2]; 20 μM BBR, 12 hours) of the same compound?
Answer: 50%

Question: What about the “reduction of CTFs level (of basal level), maximal” value (N2a-SwedAPP cells [2]; 20 μM BBR, 12 hours) of the same compound?
Answer: 55%

Question: What about the “phosphorylation of Akt at Ser 473 and GSK3 at Ser 21 and Ser9, concentration-dependent” value (N2a-SwedAPP cells [2]; BBR 10 and 20 μM, 3 hours) of the same compound?
Answer: significant increases

Question: What about the “cellular total Akt and GSK3β levels” value (N2a-SwedAPP cells [2]; BBR treatment) of the same compound?
Answer: does not significantly affect
